# From patent US8343580B2, “Organometallic compounds” (Rohm and Haas Electronic Materials LLC, priority 2009, dated 2013)
# Tests used:
# [1] = Solubility in organic solvents at room temperature by direct dissolution method; type: physicochemical; conditions: for Solubility: room temperature; for Solubility in aromatic solvents: toluene and tetralin, by NMR spectroscopy and direct dissolution method
# Method: The solubility of N,N′-di-tert-butylacetamidinato-N,N′-di-tert-butylacetamidinatocarbamoyl dicarbonyl Ruthenium(II) (“Ru-Cbm-Invention”, from Example 1) and bis(N,N′-di-tert-butylacetamidinato) dicarbonyl Ruthenium(II) (“Ru-AMD-Comparative”) were determined at room temperature in a variety of solvents by direct dissolution method. The solid Ru-AMD-Comparative compound was prepared by the synthetic route described in R. Gordon et al., The Open Inorganic Chemistry Journal, 2 (2008) 11. Compounds with less than 0.01 wt % dissolved were considered to be sparingly soluble.
# [2] = Decomposition temperature by accelerated rate calorimetry (ARC); type: physicochemical; conditions: ARC adiabatic calorimeter, self-heating exceeding 0.02° C./minute
# Method: The decomposition temperature of N,N′-di-tert-butylacetamidinato-N,N′-di-tert-butylacetamidinatocarbamoyl dicarbonyl Ruthenium(II) (“Ru(AMD)-Cbm”) was determined using accelerated rate calorimetry (ARC™ adiabatic calorimeter available from Arthur D. Little). A sample of the compound was placed in a spherical bomb that was connected to a sealed pressure measurement system. A thermocouple was attached to the outside of the bomb and the bomb was placed in the center of the calorimeter assembly. The calorimeter assembly has 3 zones, each zone having its own thermocouple and heaters. The ARC™ calorimeter uses a heat-wait-search-exotherm program. The calorimeter and the sample were heated to a start temperature. The sample and calorimeter temperatures equilibrated during the wait portion of the program. Next, the calorimeter monitored the sample for self-heating (exceeding 0.02° C./minute) during the search portion of the program to determine the onset temperature of the exotherm. To be useful in ALD processes, a precursor should not decompose at temperatures at or below 140° C., and preferably not at or below 150° C.
# [3] = Mixture of Diphenyl ether and Biphenyl
# [4] = Polyethylene glycol dibutyl ether
SMILES,Solubility ([1]; Cyclohexylbenzene) [wt %],Solubility ([1]; Cyclohexylbenzene:LAB (1:1)) [wt %],Solubility ([1]; LAB) [wt %],"Solubility [1, 3] [wt %]",Solubility ([1]; Pentamethyldiethylenetriamine) [wt %],"Solubility [1, 4] [wt %]",Solubility ([1]; THF) [wt %],Solubility ([1]; Tetralin) [wt %],Solubility ([1]; Toluene) [wt %],Solubility ([1]; n-Octane),Solubility in aromatic solvents [1],"Temperature up to which the sample was stable (decomposition, onset of exotherm) [2]",Increase of solubility as compared to Ru-AMD ([1]; in tetrahydrofuran) [fold]
"CC(=NC(C)(C)C)[N]([Ru][N](C(C)=NC(C)(C)C)C(C)(C)C)C(C)(C)C.[C-]#[O+].[C-]#[O+] [Ru-AMD, bis(N,N′-di-tert-butylacetamidinato) dicarbonyl Ruthenium(II), reference compound]",<0.01,<0.01,<0.01,<0.01,<0.01,<0.01,0.7,<0.01,<0.01,insoluble,little to no solubility,–,–
"CC1=[N+](C(C)(C)C)[Ru-4]2([C]#[O+])([C]#[O+])([C](=O)N1C(C)(C)C)[N](C(C)(C)C)C(C)=[N+]2C(C)(C)C [Ru-Cbm, N,N′-di-tert-butylacetamidinato-N,N′-di-tert-butylacetamidinatocarbamoyl dicarbonyl Ruthenium(II)]",6.0,6.0,3.0,12.0,15.0,8.0,43.6,8.5,38.5,2.3 wt %,soluble,up to 250 °C,62
